In patent US6962912B2, “Substituted pyrazolo[4,3-e]diazepines, pharmaceutical compositions containing them, use as medicinal products and processes for preparing them” (Warner-Lambert LLC, priority 2000, dated 2005):

Columns and labels:
PDE4 = experiment: Inhibition of PDE4 (cytosolic enzyme preparation from U937 line), compared with rolipram; type: biochemical, human; conditions: PDE4 enzyme preparation obtained from the U937 line

Molecule `CCn1nc(C)c2c1C(=O)NCC(C(C)(C)C)=N2` [Example 33, 5-tert-Butyl-1-ethyl-3-methyl-6,7-dihydro-1H-pyrazolo[4,3-e][1,4]diazepin-8-one] has an IC50 (PDE4) of 110 nM and a melting point of 120 °C.
With `CCCCc1nn(CC)c2c1N=C(c1ccccc1)CNC2=S` [Example 52, 3-Butyl-1-ethyl-5-phenyl-6,7-dihydro-1H-pyrazolo[4,3-e][1,4]diazepin-8-thione] the IC50 (PDE4) was 0.65 nM and the melting point was 151.5 °C.
`CCn1nc(C)c2c1C(=O)NCC(c1cccnc1)=N2` [Example 53, 1-Ethyl-3-methyl-5-pyrid-3-yl-6,7-dihydro-1H-pyrazolo[4,3-e][1,4]diazepin-8-one] showed an IC50 (PDE4) of 260 nM and a melting point of 178 °C.
`CCn1nc(C)c2c1C(=O)NCC(c1ccccn1)=N2` [Example 54, 1-Ethyl-3-methyl-5-pyrid-2-yl-6,7-dihydro-1H-pyrazolo[4,3-e][1,4]diazepin-8-one] gave an IC50 (PDE4) of 240 nM and a melting point of 153 °C.
Molecule `CCn1nc(C(C)(C)C)c2c1C(=NC#N)NCC(c1ccccc1)=N2` [Example 57, 3-tert-Butyl-1-ethyl-5-phenyl-6,7-dihydro-1H-pyrazolo[4,3-e][1,4]diazepin-8-ylidene-cyanamide] has an IC50 (PDE4) of 0.13 nM and a melting point of 250 °C.
Molecule `CCn1nc(C)c2c1C(=O)NCC(c1ccc(C(F)(F)F)cc1)=N2` [Example 60, 1-Ethyl-3-methyl-5-(4-trifluoromethylphenyl)-6,7-dihydro-1H-pyrazolo[4,3-e][1,4]diazepin-8-one] has an IC50 (PDE4) of 580 nM and a melting point of 195 °C.
Work on `CCCn1nc(C(C)C)c2c1C(=S)NCC(c1ccc(C)cc1)=N2` [Example 63, 3-Isopropyl-1-propyl-5-p-tolyl-6,7-dihydro-1H-pyrazolo[4,3-e][1,4]diazepin-8-thione] yielded an IC50 (PDE4) of 5 nM and a melting point of 162.9 °C.
Molecule `CCCn1nc(C(C)(C)C)c2c1C(=S)NCC(C(C)(C)C)=N2` [Example 64, 3,5-Di-tert-butyl-1-propyl-6,7-dihydro-1H-pyrazolo[4,3-e][1,4]diazepin-8-thione] has an IC50 (PDE4) of 4.6 nM and a melting point of 205 °C.
For `CCCn1nc(C(C)C)c2c1C(=S)NCC(C(C)(C)C)=N2` [Example 65, 5-tert-Butyl-3-isopropyl-1-propyl-6,7-dihydro-1H-pyrazolo[4,3-e][1,4]diazepin-8-thione], the IC50 (PDE4) was 1.5 nM and the melting point was 165 °C.
Work on `CCn1nc(C(C)C)c2c1C(=S)NCC(c1ccc(C)cc1)=N2` [Example 66, 1-Ethyl-3-isopropyl-5-p-tolyl-6,7-dihydro-1H-pyrazolo[4,3-e][1,4]diazepin-8-thione] yielded an IC50 (PDE4) of 0.63 nM and a melting point of 178 °C.
`CCn1nc(C(C)C)c2c1C(=S)NCC(C(C)(C)C)=N2` [Example 67, 5-tert-Butyl-1-ethyl-3-isopropyl-6,7-dihydro-1H-pyrazolo[4,3-e][1,4]diazepin-8-thione] showed an IC50 (PDE4) of 1 nM and a melting point of 218 °C.
Molecule `CCn1nc(C(C)C)c2c1C(=NC#N)NCC(C(C)(C)C)=N2` [Example 80, 5-tert-Butyl-1-ethyl-3-isopropyl-6,7-dihydro-1H-pyrazolo-[4,3-e][1,4]diazepin-8-ylidenecyanamide] has an IC50 (PDE4) of 0.22 nM and a melting point of 243 °C.
For `CCn1nc(C(C)C)c2c1C(=NC#N)NCC(c1ccc(C)cc1)=N2` [Example 81, 1-Ethyl-3-isopropyl-5-p-tolyl-6,7-dihydro-1H-pyrazolo-[4,3-e][1,4]diazepin-8-ylidenecyanamide], the IC50 (PDE4) was 0.54 nM and the melting point was 245 °C.
In the case of `CCn1nc(C(C)C)c2c1C(=O)NCC(c1ccc(OC)cc1)=N2` [Example 82, 1-Ethyl-3-isopropyl-5-(4-methoxyphenyl)-6,7-dihydro-1H-pyrazolo[4,3-e][1,4]diazepin-8-one], the IC50 (PDE4) is reported as 62 nM and the melting point is reported as 150 °C.
`CCn1nc(C)c2c1C(=NC#N)NCC(c1ccc(OC)cc1)=N2` [Example 84, 1-Ethyl-3-methyl-5-(4-methoxyphenyl)-6,7-dihydro-1H-pyrazolo[4,3-e][1,4]diazepin-8-ylidenecyanamide] showed an IC50 (PDE4) of 60 nM and a melting point of 265 °C.
